# Experimental data: article PMC9105941, “A New Xanthone Glycoside from Mangifera indica L.: Physicochemical Properties and In Vitro Anti-Skin Aging Activities” (Molecules, 2022)
# Peptide text beside a SMILES is read from it. * marks the point of attachment. MeOSuc = COC(=O)CCC(=O)*; CH2Cl = ClC*
# Assays:
# Assay type in all cases: biochemical
# tyrosinase = experiment: Tyrosinase Inhibitor Screening Colorimetric Assay Kit; conditions: 25 °C, 510 nm
# Description: The inhibitory activities of oils were tested against collagenase using the Abcam® Tyrosinase Inhibitor Screening Colorimetric Assay Kit (catalog # ab204715). The assay was carried out according to the provided manual. […] The tested compound was prepared in concentrations ranging from 0.1 to 100 µg/mL for the analysis. About 2 μL of provided tyrosinase was mixed with 48 μL of tyrosinase assay buffer. The samples of essential oils or standard (20 μL) were mixed with the enzyme mixture (50 μL) and incubated at 25 °C for 10 min. Then, 30 μL of tyrosinase substrate solution was added to the wells of essential oils and standard. Afterward, the plate was measured spectrophotometrically at a wavelength of 510 nm for 30–60 min at 25 °C.
# collagenase = experiment: fluorometric collagenase inhibitor screening kit; conditions: 37 °C, 60 min kinetic
# Description: The inhibitory ability of the isolated compound against collagenase activity was assessed using a fluorometric collagenase inhibitor screening kit (BioVision, catalog no. # K833-100) according to the previously described method. The reference control was (1,10)-phenanthroline. The tested compound and reference control were prepared in concentrations of 1, 10, 100, and 1000 ug/mL for the analysis. The tested compound was prepared in a 96-well plate with a flat bottom. First, the collagenase substrate was dissolved in collagenase assay buffer (CAB). The sample for analysis was prepared by mixing the compound with both collagenase and CAB. Preparing inhibitor control samples was performed by mixing the inhibitor ((1,10)-phenanthroline (80 mM)) with the diluted collagenase enzyme and CAB buffer. Enzyme control was prepared by mixing the diluted collagenase with CAB. The CAB buffer was used as the background control. All samples were incubated at room temperature for 15 min. […] The fluorescence was measured immediately at 490 nm excitation wavelength and 520 nm emission wavelength using a microplate reader (FilterMax F5, Thermo Fisher). […] Samples were prepared in duplicate and the collagenase inhibitory effect of the tested compound was calculated applying the following equation: % Relative inhibition=Enzyme control−sample/Enzyme control×100
# elastase = elastase (Sus scrofa, UniProt P00772); experiment: EnzChek Elastase Assay Kit, anti-elastase activity; conditions: fluorometric kit, 37 °C, 30 min kinetic
# Description: Anti-elastase activity of the compound was investigated using the EnzChek® Elastase Assay Kit (E-12056) according to the previously reported method. The tested compound and reference control were prepared in concentrations of 0.1, 1, 10, and 100 µg/mL for the analysis. The compound was prepared in 96-well plates with clear bottoms for the fluorometric assay. Briefly, elastase enzyme solutions, elastase substrate, and inhibitor control were prepared as recommended. Diluted elastase solution was then added to the wells. Tested compound, inhibitor control, and enzyme control were added to subsequent wells. The samples were mixed on a shaker and then incubated for 5 min at 37 °C. Assay buffer was mixed with the substrate to prepare the fluorometric reaction mix, which was then added and mixed thoroughly with each sample. The fluorescence was measured immediately at 400 nm excitation wavelength and 505 nm emission wavelength using a microplate reader (FilterMax F5, Thermo Fisher, Waltham, MA, USA). The measurement was made in kinetic mode at 37 °C for 30 min protected from light. All tested samples were prepared and assayed in duplicate and the elastase inhibitory effect of the tested compound was calculated applying the following equation: %Relative inhibition=ΔRFU(test inhibitor)/ΔRFU×100 where: • ΔRFU = a change in relative fluorescence units • EC = enzyme control
# elastase, sequence (P00772 27-266): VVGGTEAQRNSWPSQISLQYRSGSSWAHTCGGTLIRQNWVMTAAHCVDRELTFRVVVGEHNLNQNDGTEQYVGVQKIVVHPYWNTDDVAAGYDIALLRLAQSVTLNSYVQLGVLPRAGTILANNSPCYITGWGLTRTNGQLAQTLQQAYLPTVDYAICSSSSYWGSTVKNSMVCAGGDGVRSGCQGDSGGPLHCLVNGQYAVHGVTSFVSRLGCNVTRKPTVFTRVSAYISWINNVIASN
compound,measurement,setting,value
"O=c1c2ccc(O)c(O)c2oc2c(C3OC(CO)C(O)C(O)C3O)c(O)cc(O)c12 [isolated compound, 1,3,5,6-tetrahydroxyxanthone-C-4-β-D-glucopyranoside]",anti-tyrosinase IC50,tyrosinase,0.48 µg/mL
"c1cnc2c(c1)ccc1cccnc12 [phenanthroline, (1,10)-phenanthroline]",anti-collagenase IC50,collagenase,182.80 µg/mL
COC(=O)CCC(=O)N[C@@H](C)C(=O)N[C@@H](C)C(=O)N1CCC[C@H]1C(=O)N[C@H](C(=O)CCl)C(C)C [N-methoxysuccinyl-Ala-Ala-Pro-Val-chloromethyl ketone] (MeOSuc-AAPV-CH2Cl),anti-elastase IC50,elastase,0.63 µg/mL
